Source: patent publication US20240190862A1 (AMGEN INC., priority 2019, published 2024)
Like-named read-outs stand apart in the source and are kept apart here.

Legend:
[1] = molecular target: GDP-bound KRAS protein (aa 1-169) G12C/C118A (Homo sapiens (Human), UniProt P01116, C118A/G12C); experiment: Coupled Nucleotide Exchange Assay (KRAS G12C); assay type: biochemical
Experimental: (§1) Coupled Nucleotide Exchange Assay: Purified GDP-bound KRAS protein (aa 1-169), containing either G12C or G12D, as well as C118A amino acid substitutions and an N-terminal His-tag, was pre-incubated in assay buffer (25 mM HEPES pH 7.4, 10 mM MgCl2, and 0.01% Triton X-100) with a compound dose-response titration for either 5 min or 20 hours (see Table 15). Following compound pre-incubation, purified SOS protein (aa 564-1049) and GTP (Roche 10106399001) were added to the assay wells and incubated for an additional 30 min. To determine the extent of inhibition of SOS-mediated nucleotide exchange, purified GST-tagged cRAF (aa 1-149), nickel chelate AlphaLISA acceptor beads (PerkinElmer AL108R), and AlphaScreen glutathione donor beads (PerkinElmer 6765302) were added to the assay wells and incubated for 10 minutes. The assay plates were then read on a PerkinElmer EnVision Multilabel Reader, using AlphaScreen® technology, and data were analyzed using a 4-parameter logistic model to calculate IC50 values.

[2] = system: Phosphorylation of ERK1/2 in MIA PaCa-2 (G12C) cells; experiment: Phospho-ERK1/2 MSD Assay; assay type: cell-based; conditions: Homo sapiens; 2 h compound treatment, MIA PaCa-2 cells; read-out: basal p-ERK 2 h MIA PaCa-2 (G12C) IC50 IP
Experimental: Phospho-ERK1/2 MSD Assay: MIA PaCa-2 (ATCC® CRL-1420™) cells were cultured in RPMI 1640 Medium (ThermoFisher Scientific 11875093) containing 1% fetal bovine serum (ThermoFisher Scientific 16000044) and 1× penicillin-streptomycin-glutamine (ThermoFisher Scientific 10378016). Sixteen hours prior to compound treatment, MIA PaCa-2 cells were seeded in 96-well cell culture plates at a density of 25,000 cells/well and incubated at 37° C., 5% C02. A compound dose-response titration was diluted in growth media, added to appropriate wells of a cell culture plate, and then incubated at 37° C., 5% C02 for 2 or 4 hours (see Table 15). Following compound treatment, cells were washed with ice-cold Dulbecco's phosphate-buffered saline, no Ca^2+or Mg^2+(ThermoFisher Scientific 14190144), and then lysed in RIPA buffer (50 mM Tris-HCl pH 7.5, 1% Igepal, 0.5% sodium deoxycholate, 150 mM NaCl, and 0.5% sodium dodecyl sulfate) containing protease inhibitors (Roche 4693132001) and phosphatase inhibitors (Roche 4906837001). Phosphorylation of ERK1/2 in compound-treated lysates was assayed using Phospho-ERK1/2 Whole Cell Lysate kits (Meso Scale Discovery K151DWD) according to the manufacturer's protocol. Assay plates were read on a Meso Scale Discovery Sector Imager 6000, and data were analyzed using a 4-parameter logistic model to calculate IC50 values.

[3] = molecular target: GDP-bound KRAS protein (aa 1-169) G12D/C118A (Homo sapiens (Human), UniProt P01116, C118A/G12D); experiment: Coupled Nucleotide Exchange Assay (KRAS G12D); assay type: biochemical; conditions: 20 h compound pre-incubation; read-out: GDP KRAS G12D 20 h Coupled Exchange IC50 IP
Experimental: as §1

GDP-KRAS G12D = GDP-KRAS G12D (Homo sapiens, UniProt P01116, C118A/G12D); experiment: GDP-KRAS G12D RF-MS Assay; assay type: binding; conditions: 100 μM inhibitor, 20 h incubation, 2 uM KRAS G12D
Experimental: GDP-KRAS G12D RF-MS Assay: MS assays were performed in the following buffer: 25 mM HEPES pH 7.4, 20 mM MgCl2, 10 mM NaCl, 3% DMSO, 0.0005% CHAPS with 100 μM GDP made fresh and added to the assay buffer. The final concentration of KRAS G12D was 2 uM. Assay incubation times were 20 h and the inhibitor concentration was 100 μM. Greiner polypropylene clear V-bottom plates were used for the mass spectrometry assays. Typically, the reaction was initiated by addition of KRAS G12D to a well containing inhibitor followed by Rapidfire MS analysis. Relative % Bound values at the various incubation times were used to estimate a kobs value at 100 uM inhibitor.
RapidFire Sample Liquid handling System: The RapidFire liquid handling unit used was the RF 360 model. Solvents were delivered by Agilent 1260 Infinity pumps. The instrument control software was the Agilent RapidFire High Throughput MS-system software (v4.0.12333.14274). A single C4 Type A (Agilent technologies, G9203) SPE-cartridge was used for these experiments. A volume of 10 μL (sample loop determined) was removed from each well of a 384-well plate by using an aspiration time of 300 ms. The sample load/wash time was 6000 ms at a flow rate of 1.25 mL/min (H2O, 0.1% v/v formic acid, 0.05% v/v trifluoroacetic acid); elution time was 7000 ms (acetonitrile, 0.1% v/v formic acid, 0.05% v/v trifluoroacetic acid); re-equilibration time was 700 ms at a flow rate of 1.25 mL/min (H2O, 0.1% v/v formic acid, 0.05% v/v trifluoroacetic acid).
Mass Spectrometry: Mass spectrometric data was acquired on an Agilent 6530 quadrupole time-of-flight (ToF) MS system, operated with a dual Agilent Jet Spray (AJS) ion source, in positive ionization mode. The instrument parameters were as follows: gas temperature 350° C.; drying gas 5 L/min; nebulizer 60 psi; sheath gas 350° C.; sheath gas flow 11 L/min; capillary 3.5 kV (0.037 μA); nozzle 1.75 kV; fragmentor 200 V; skimmer 75 V; octapole RF 800 V peak-to-peak. Data was acquired at the rate of 5 spectra/s. The mass scale was calibrated using the Agilent positive ion tune mix, over the m/z range 300-3200. The instrument control software was Agilent MassHunter Workstation Data Acquisition (vB.05.01).
Mass Spectrometry Data Processing and Informatics: All data processing was performed using a HP Z620, 64-bit, 12-processor, Windows 7 PC, using a combination of Agilent MassHunter Qualitative Analysis (B.05.00) Agilent RapidFire control software (v4.0.12333.14070) and the Agilent DA Reprocessor Offline Utilities B.05.00, Build 162. The SPE-MS data acquired from the RapidFire-MS system is typically a single SPE-MS data file composed of multiple injection events. For effective charge state extraction, SPE-peak integration and subsequent MS-spectral deconvolution, the single SPE-MS data file is split into single injection events. This is typically performed off-line and achieved through the RapidFire User Interface software, using the Agilent RapidFire control software (v4.0.12333.14070) using the Convert MS Data option. Once the individual injection-event MS-data files have been produced, they are all batch processed using the DA Reprocessor Offline Utilities (B.05.00, Build 162, Agilent). For batch processing a method file was created using Agilent MassHunter Qualitative Analysis B.05.00. The details of this method file are contained within the BioConfirm Workflow and are as follows: Integrate (MS), Integrator Selection: General, smooth option selected; detector point sampling 1; start threshold 5.0; stop threshold 0.0; filtering 5 point; peak location, top. Extract (MS): Peak Spectrum Extraction (MS) within m/z 800-1400. Deconvolute (MS) Maximum Entropy: mass range 19,000-21,000 Daltons; Mass step 1.0 Da; S/N threshold 20.0; Use limited m/z range 800-1400; adduct proton; isotope peak width automatic; minimum consecutive charge states 5. […]

[4] = 5 min compound pre-incubation, read-out: GDP KRAS G12C 5 min Coupled Exchange IC50 IP
[5] = 20 h compound pre-incubation, read-out: GDP KRAS G12C 20 h Coupled Exchange IC50 IP

GDP-bound KRAS protein (aa 1-169) G12C/C118A, sequence (P01116 other isoform, or with tags, fused parts or gaps G12C/C118A): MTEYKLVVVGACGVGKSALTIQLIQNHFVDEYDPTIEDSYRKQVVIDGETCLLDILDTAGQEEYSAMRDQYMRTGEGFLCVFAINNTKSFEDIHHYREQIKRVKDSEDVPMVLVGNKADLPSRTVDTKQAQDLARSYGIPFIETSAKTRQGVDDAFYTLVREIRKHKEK
GDP-bound KRAS protein (aa 1-169) G12D/C118A, sequence (P01116 other isoform, or with tags, fused parts or gaps G12D/C118A): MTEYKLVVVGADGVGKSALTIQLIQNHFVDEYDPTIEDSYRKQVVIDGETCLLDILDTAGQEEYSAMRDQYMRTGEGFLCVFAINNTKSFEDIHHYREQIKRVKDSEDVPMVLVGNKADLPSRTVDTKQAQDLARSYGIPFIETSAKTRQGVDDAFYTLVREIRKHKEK

Structure (SMILES) | IC50 [1, 4] [µM] | IC50 [1, 5] [µM] | IC50 [2] [µM] | IC50 [3] [µM] | GDP-KRAS G12D RF-MS 100 μM 20 h Relative % Bound (GDP-KRAS G12D) [%]
COC(=O)/C=C/C(=O)N1CCN(c2nc(=O)n(-c3c(C)ccnc3C(C)C)c3nc(-c4ccccc4F)c(Cl)cc23)[C@@H](C)C1 [Example 5, Methyl (S,E)-4-(4-(6-chloro-7-(2-fluorophenyl)-1-(2-isopropyl-4-methylpyridin-3-yl)-2-oxo-1,2-dihydropyrido[2,3-d]pyrimidin-4-yl)-3-methylpiperazin-1-yl)-4-oxobut-2-enoate] | 0.095 | 0.026 | 0.061 | > 250 | –
Cc1ccnc(C(C)C)c1-n1c(=O)nc(N2CCN(C(=O)C=O)C[C@@H]2C)c2cc(Cl)c(-c3ccccc3F)nc21 [Example 4, (S)-2-(4-(6-chloro-7-(2-fluorophenyl)-1-(2-isopropyl-4-methylpyridin-3-yl)-2-oxo-1,2-dihydropyrido[2,3-d]pyrimidin-4-yl)-3-methylpiperazin-1-yl)-2-oxoacetaldehyde] | – | – | 0.711 | – | –
CCOC(=O)[C@@H]1O[C@H]1C(=O)N1CCN(c2nc(=O)n(-c3c(C)ccnc3C(C)C)c3nc(-c4ccccc4F)c(Cl)cc23)[C@@H](C)C1 [Example 19, Ethyl (2R,3R)-3-((S)-4-(6-chloro-7-(2-fluorophenyl)-1-(2-isopropyl-4-methylpyridin-3-yl)-2-oxo-1,2-dihydropyrido[2,3-d]pyrimidin-4-yl)-3-methylpiperazine-1-carbonyl)oxirane-2-carboxylate] | 0.216 | 0.005 | 0.096 | > 250 | 3.4
